In one assay the target is T1, P70S6K (T412E mutant) (Homo sapiens, UniProt P23443, T412E).
T1 construct: purchased Millipore
The assay is described as follows: p70S6K Enzyme Assay. It is filed as biochemical. The settings on record: 24 μM ATP, 90 min at 25° C., Caliper mobility shift. How it is done:
p70S6K inhibitor compounds were diluted and plated in 96 well plates. A reaction mixture including the following components were then added to the compound plate to initiate the enzyme reaction; P70S6K (3 nM, T412E mutant, Millipore) was mixed with 24 μM ATP in an assay buffer containing 100 mM Hepes (pH 7.5), 5 mM MgCl2, 1 mM DTT, 0.015% Brij and 1 μM of the substrate peptide FITC-AHA-AKRRRLSSLRA-OH (derived from the S6 ribosomal protein sequence, FITC=fluorescein isothiocyanate, AHA=6-aminohexanoic acid). The reaction was incubated for 90 min at 25° C., before the addition of 10 mM EDTA to stop the reaction. The proportion of substrate and product (phosphorylated) peptide was analysed on a Caliper Life Sciences Lab Chip 3000, using a pressure of −1.4 psi, and upstream and downstream voltages of −3000 and −700 respectively. Product peaks were resolved before substrate peaks on the resulting chromatograms.
To assess the inhibitory potential of the compounds, IC50-values were determined, as shown in Chemical Synthesis section above.

A further assay concerns pS6 MDA-MB-468. The experiment in a line: Cellular Activity Assay (phospho-S6 in MDA-MB-468 cells). Type of assay: cell-based. To be noted: Homo sapiens, 2 hr compound incubation, percent pS6-positive cells. How it is done:
MDA-MB-468 cells were grown in DMEM containing glutamine supplemented with 10% Fetal Bovine Serum (FBS) and 1× antibiotics. Cells were maintained by splitting 1:3 twice a week.
For the assay, cells were plated the evening before at a density of 4000 cells per well in black polyD lysine coated 384 well plates. Cells were incubated overnight (16 to 20 hours) in growth media. Compounds at an appropriate concentration were added to the wells and incubated for 2 hr. Controls included: i) no primary, ii) rabbit isotype, iii) propidium iodide (red) only and iv) anti-phospho-S6 antibody alone (green only). Cells were then fixed in 4% paraformaldehyde for 15-20 minutes at room temperature, then washed 3×80 ul with PBS.
50 ul 10% normal goat serum (NGS) with 0.2% triton X 100 in PBS were added and incubated for 30 to 60 minutes at room temperature. Anti-phospho-S6 antibody was diluted 1:800 2% with NGS in 0.2% TritonX-100 and 30 ul added to appropriate wells. The wells were incubated overnight at 4 degrees Celsius.
Then the wells were washed with 3×80 uL PBS. The secondary green fluorescence labeled antibody (Alexa Fluor® 488 F(ab′)2 fragment goat Anti-rabbit IgG (H+L)), was diluted 1:1500 in 2% NGS with 0.2% TritonX-100, and 30 ul were added to the appropriate wells which were then incubated in the dark at room temperature for 60 minutes. Then they were washed with 4×80 ul PBS. Propidium iodide (1.5 mM stock) was diluted 1:1000 in PBS, and 50 ul were added to the appropriate wells and incubated for 30 minutes at room temperature in the dark. Propidium iodide was not washed out. Plates were read on the Acumen Explorer.
Red and green cell populations were determined using controls. The number of green cells (pS6) and total number of cells (red) were then counted and the percentage of green cells was calculated. Percent positive cell data was plotted on a log scale against concentration of compounds and IC50 values were calculated from dose response curves.

The target of the next assay is T2, Akt1 (Homo sapiens, UniProt P31749).
T2 construct: 0.1 ng/ul His-AKT (Full Length), (Invitrogen, Part #P2999, Lot #641228C); His; purchased Invitrogen P2999
T2 sequence (P31749 whole entry): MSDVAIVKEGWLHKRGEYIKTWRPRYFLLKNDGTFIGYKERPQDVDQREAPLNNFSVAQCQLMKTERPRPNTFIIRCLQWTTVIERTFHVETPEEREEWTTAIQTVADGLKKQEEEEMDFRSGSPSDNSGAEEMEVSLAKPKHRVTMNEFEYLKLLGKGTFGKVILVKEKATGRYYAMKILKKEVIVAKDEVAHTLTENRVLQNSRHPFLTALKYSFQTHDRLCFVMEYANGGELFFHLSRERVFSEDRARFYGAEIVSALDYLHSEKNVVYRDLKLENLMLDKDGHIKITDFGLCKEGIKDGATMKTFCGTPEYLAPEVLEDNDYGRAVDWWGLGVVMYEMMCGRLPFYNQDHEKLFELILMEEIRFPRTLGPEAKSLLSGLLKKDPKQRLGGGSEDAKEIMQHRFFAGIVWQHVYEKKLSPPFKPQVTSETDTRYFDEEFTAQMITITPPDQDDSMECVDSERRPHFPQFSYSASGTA
The experiment in a line: AKT/PKB Kinase Assay. Type of assay: biochemical. To be noted: His-AKT (Full Length), 160 uM ATP, 90 min at 25 C. On the procedure: In order to measure AKT inhibition in the Caliper Life Sciences LC3000, a TTP Mosquito liquid handling instrument was used to place 125 nl of the appropriate concentration of inhibitor in 100% DMSO (for a dose response curve calculation) into each well of a 384-well plate. To this reaction components were added to a final volume of 12.5 ul: • 0.1 ng/ul His-AKT (Full Length), (Invitrogen, Part #P2999, Lot #641228C) • 160 uM ATP (Fluke, 02055) • 1 mM DTT (Sigma, D0632) • 1 mM MgCl2 (Sigma, M1028) • 1 uM substrate peptide (sequence FITC-AHA-GRPRTSSFAEG-NH2), synthesized by Tufts Peptide Synthesis service. • 100 mM HEPES pH 7.5 (Calbiochem, 391338) • 0.015% Brij-35 (Sigma, B4184)
(§1) The reaction was incubated for 90 min at 25 C, and then stopped by the addition of 70 ul of Stop buffer (100 mM HEPES pH 7.5, 0.015% Brij-35, 10 mM EDTA (Sigma, E7889)).
The plate was read on a Caliper LC 3000 in an Off-Chip mobility shift assay format, using the following parameters for a 12-sipper chip: screening pressure −2.3 psi, upstream voltage −500, and downstream voltage −3000.
These conditions cause unphosphorylated substrate and phosphorylated product peptide to resolve as separate peaks allowing direct measurement of percentage of conversion of substrate to product. The percent conversion was plotted against concentration of inhibitor to produce a sigmoidal dose response curve, from which an IC50 was calculated.

For another assay, the target named is T3, Aurora B (Homo sapiens, UniProt Q96GD4).
T3 construct: GST-Aurora B (1-344 amino acids); GST (N); purchased Carna Biosciences 05-102
T3 sequence (Q96GD4 whole entry, the tested form may be a part): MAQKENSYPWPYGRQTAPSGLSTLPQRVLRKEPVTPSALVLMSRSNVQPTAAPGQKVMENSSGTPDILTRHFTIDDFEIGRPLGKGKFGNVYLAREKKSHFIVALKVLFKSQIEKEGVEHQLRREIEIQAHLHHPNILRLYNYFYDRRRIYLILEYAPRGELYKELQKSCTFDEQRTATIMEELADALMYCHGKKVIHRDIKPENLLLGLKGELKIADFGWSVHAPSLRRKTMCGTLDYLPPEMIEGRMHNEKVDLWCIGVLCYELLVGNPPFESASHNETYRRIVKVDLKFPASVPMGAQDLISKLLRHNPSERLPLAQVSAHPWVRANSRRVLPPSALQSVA
T3 sequence (Q9NQS7 803-918 partner limits assumed): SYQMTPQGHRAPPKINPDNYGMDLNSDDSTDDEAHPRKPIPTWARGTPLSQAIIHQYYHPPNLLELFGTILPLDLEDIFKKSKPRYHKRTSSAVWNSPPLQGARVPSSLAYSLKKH
The assay is described as follows: Aurora B Kinase Assay. It is filed as biochemical. To be noted: GST-Aurora B (1-344), 10 uM ATP, 90 min at 25 C. On the procedure:
To measure inhibitor activity of Aurora B inhibitors in the Caliper Life Sciences LC3000, a TTP Mosquito liquid handling instrument was used to place 0.25 ul of the appropriate concentration of inhibitor in 100% DMSO (for a dose response curve calculation) into each well of a 384-well plate. To this reaction components was added to a final volume of 25 ul: • 0.1 ng/ul GST-Aurora B (1-344 amino acids), (Carna Biosciences 05-102. N-terminal GST fusion with His tagged INCEP, accession number Q96GD4). • 10 uM ATP (Fluka, 02055) • 1 mM DTT (Sigma, D0632) • 1 mM MgCl2 (Sigma, M1028) • 1 uM substrate peptide (sequence FITC-LRRASLG-(CONH2), synthesized by Tufts Peptide Synthesis service. • 100 mM HEPES pH 7.5 (Calbiochem, 391338) • 0.015% Brij-35 (Sigma, B4184)
as §1
The plate was read on a Caliper LC 3000 in an Off-Chip mobility shift assay format, using the following parameters for a 12-sipper chip: screening pressure −1.8 psi, upstream voltage −2700, downstream voltage −1000. These conditions caused unphosphorylated substrate and phosphorylated product peptide to resolve as separate peaks allowing direct measurement of percentage of conversion of substrate to product. The percent conversion was plotted against concentration of inhibitor to produce a sigmoidal dose response curve, from which an IC50 was calculated using XLFit for Microsoft Excel.

Drawing on patent US8946247B2, “Quinazoline carboxamide azetidines” (Merck Patent GmbH, priority 2010, dated 2015), this text covers IC50 for 14 compounds.

For orientation: IC50 means the midpoint of a concentration-inhibition curve.

T1 sequence (P23443 1-421 T412E limits assumed): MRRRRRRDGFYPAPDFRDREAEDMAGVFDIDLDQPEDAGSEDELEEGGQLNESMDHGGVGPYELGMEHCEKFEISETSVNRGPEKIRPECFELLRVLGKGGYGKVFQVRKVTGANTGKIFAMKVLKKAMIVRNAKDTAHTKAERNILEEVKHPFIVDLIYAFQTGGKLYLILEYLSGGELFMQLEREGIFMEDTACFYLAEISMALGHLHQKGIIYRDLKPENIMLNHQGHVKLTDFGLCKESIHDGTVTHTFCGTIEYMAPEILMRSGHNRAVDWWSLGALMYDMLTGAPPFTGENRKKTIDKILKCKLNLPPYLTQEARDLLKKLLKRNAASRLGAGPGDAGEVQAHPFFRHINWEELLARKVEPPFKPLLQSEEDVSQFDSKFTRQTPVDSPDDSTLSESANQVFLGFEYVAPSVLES

On to `NC(=O)c1cccc2c(N[C@H](CN3CCC3)c3ccc(Cl)c(C(F)(F)F)c3)ncnc12` [Example 5, 4-[(S)-2-Azetidin-1-yl-1-(4-chloro-3-trifluoromethylphenyl)-ethylamino]-quinazoline-8-carboxylic acid amide], for which the IC50 on P70S6K (T412E mutant) turned out to be 0.9 nM; in the assay on pS6 MDA-MB-468, 11 nM; against Akt1 it was 1.4 nM; on Aurora B it was 100 nM.
Take `NC(=O)c1cccc2c(N[C@H](CN3CCC3)c3cc(F)cc(C(F)(F)F)c3)ncnc12` [Example 6, 4-[(S)-2-Azetidin-1-yl-1-(3-fluoro-5-trifluoromethylphenyl)-ethylamino]-quinazoline-8-carboxylic acid amide]: the IC50 at P70S6K (T412E mutant) came out at 2.3 nM; in the assay with pS6 MDA-MB-468, 98 nM; at Akt1, 9.1 nM; on Aurora B, 270 nM.
The like results for `NC(=O)c1cccc2c(N[C@H](CN3CCC3)c3ccc(F)c(Cl)c3)ncnc12` [Example 7, 4-[(S)-2-Azetidin-1-yl-1-(3-chloro-4-fluorophenyl)-ethylamino]-quinazoline-8-carboxylic acid amide] were, in that order, 1.3 nM, 1.3 nM, 12 nM and 58 nM.
For `NC(=O)c1cccc2c(N[C@H](CN3CCC3)c3ccc(Br)cc3)ncnc12` [Example 8, 4-[(S)-2-Azetidin-1-yl-1-(4-bromophenyl)-ethylamino]-quinazoline-8-carboxylic acid amide] the same measures were 1.6 nM, 39 nM, 48 nM and 65 nM.
For `NC(=O)c1cccc2c(N[C@H](CN3CCC3)c3ccc(C(F)(F)F)cc3)ncnc12` [Example 9, 4-[(S)-2-Azetidin-1-yl-1-(4-trifluoromethylphenyl)-ethylamino]-quinazoline-8-carboxylic acid amide] the same measures were 0.8 nM, 10 nM, 17 nM and 260 nM.
As to `NC(=O)c1cccc2c(N[C@H](CN3CCC3)c3ccc(Cl)cc3)ncnc12` [Example 10, 4-[(S)-2-Azetidin-1-yl-1-(4-chlorophenyl)-ethylamino]-quinazoline-8-carboxylic acid amide], the half-maximal inhibitory concentration (IC50) came out at 1 nM on P70S6K (T412E mutant), 36 nM in the assay with pS6 MDA-MB-468, 21 nM at Akt1 and 43 nM on Aurora B.
For `N#Cc1cccc([C@@H](CN2CCC2)Nc2ncnc3c(C(N)=O)cccc23)c1` [Example 11, 4-[(S)-2-Azetidin-1-yl-1-(3-cyanophenyl)-ethylamino]-quinazoline-8-carboxylic acid amide] the same measures were 3.3 nM, 382 nM, 270 nM and 690 nM.
In the case of `COc1cccc([C@@H](CN2CCC2)Nc2ncnc3c(C(N)=O)cccc23)c1` [Example 12, 4-[(S)-2-Azetidin-1-yl-1-(3-methoxyphenyl)-ethylamino]-quinazoline-8-carboxylic acid amide], the IC50 was found to be 4.4 nM at P70S6K (T412E mutant), 204 nM in the assay with pS6 MDA-MB-468, 250 nM against Akt1 and 67 nM at Aurora B.
For the compound `NC(=O)c1cccc2c(N[C@H](CN3CCC3)c3cccc(Br)c3)ncnc12` [Example 13, 4-[(S)-2-Azetidin-1-yl-1-(3-bromophenyl)-ethylamino]-quinazoline-8-carboxylic acid amide], the IC50 on P70S6K (T412E mutant) came out at 0.3 nM; in the assay on pS6 MDA-MB-468, 25 nM; on Akt1 it was 5 nM; against Aurora B, 17 nM.
The like results for `NC(=O)c1cccc2c(N[C@H](CN3CCC3)c3ccc(Cl)cc3F)ncnc12` [Example 14, 4-[(S)-2-Azetidin-1-yl-1-(2-fluoro-4-chlorophenyl)-ethylamino]-quinazoline-8-carboxylic acid amide] were, in that order, 1.1 nM, 86 nM, 25 nM and 69 nM.
Consider `NC(=O)c1cccc2c(N[C@H](CN3CCC3)c3ccc(F)cc3F)ncnc12` [Example 15, 4-[(S)-2-Azetidin-1-yl-1-(2,4-difluorophenyl)-ethylamino]-quinazoline-8-carboxylic acid amide], for which the IC50 worked out at 6 nM at P70S6K (T412E mutant), 144 nM in the assay on pS6 MDA-MB-468, 84 nM at Akt1 and 200 nM against Aurora B.
`NC(=O)c1cccc2c(N[C@H](CN3CCC3)c3c(F)cccc3F)ncnc12` [Example 16, 4-[(S)-2-Azetidin-1-yl-1-(2,6-difluorophenyl)-ethylamino]-quinazoline-8-carboxylic acid amide]: the concentration for half-maximal inhibition (IC50) worked out at 5.4 nM on P70S6K (T412E mutant), 183 nM with pS6 MDA-MB-468, 91 nM at Akt1 and 170 nM against Aurora B.
As for `NC(=O)c1cccc2c(N[C@H](CN3CCC3)c3ccc(C(F)(F)F)c(Cl)c3)ncnc12` [Example 17, 4-[(S)-2-Azetidin-1-yl-1-(3-chloro-4-trifluoromethylphenyl)-ethylamino]-quinazoline-8-carboxylic acid amide], the IC50 on P70S6K (T412E mutant) came to 2.3 nM; in the assay on pS6 MDA-MB-468, 8 nM; on Akt1, 3.7 nM; at Aurora B it was 130 nM.
For `NC(=O)c1cccc2c(N[C@H](CN3CCC3)c3cc(F)c(F)cc3F)ncnc12` [Example 18, 4-[(S)-2-Azetidin-1-yl-1-(2,4,5-trifluorophenyl)-ethylamino]-quinazoline-8-carboxylic acid amide] the same measures were 3.8 nM, 85 nM, 36 nM and 220 nM.
